Measured values as given in ChEMBL document CHEMBL1154377, “Evaluation of basic, heterocyclic ring systems as templates for use as potassium competitive acid blockers (pCABs)” (Bioorg Med Chem Lett, 2009).
Active and inactive are the calls of the source. No cut-off for these calls is given here.

Tests used:
[1] = molecular target: Cytochrome P450 2D6 (Homo sapiens, UniProt P10635); experiment: Inhibition of CYP2D6; format: ADME
[2] = Inhibition of H+/K+ ATPase at pH 7.4
[3] = molecular target: Cytochrome P450 2C9 (Homo sapiens, UniProt P11712)
Cytochrome P450 2C9, sequence (P11712 whole entry): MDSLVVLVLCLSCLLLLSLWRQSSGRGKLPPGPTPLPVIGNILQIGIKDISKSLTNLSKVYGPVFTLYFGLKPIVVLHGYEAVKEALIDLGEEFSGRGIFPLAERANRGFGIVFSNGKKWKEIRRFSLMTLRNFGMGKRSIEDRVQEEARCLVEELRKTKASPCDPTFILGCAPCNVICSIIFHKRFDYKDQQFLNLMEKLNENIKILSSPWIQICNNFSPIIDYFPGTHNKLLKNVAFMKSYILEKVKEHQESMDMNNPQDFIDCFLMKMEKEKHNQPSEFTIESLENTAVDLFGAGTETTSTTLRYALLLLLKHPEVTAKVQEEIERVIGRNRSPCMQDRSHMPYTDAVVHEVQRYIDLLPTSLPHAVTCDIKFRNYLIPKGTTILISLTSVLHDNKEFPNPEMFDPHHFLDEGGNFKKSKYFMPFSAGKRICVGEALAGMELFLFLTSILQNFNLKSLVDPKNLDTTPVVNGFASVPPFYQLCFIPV

[4] = molecular target: Cytochrome P450 2C19 (Homo sapiens, UniProt P33261); experiment: Inhibition of CYP2C19; format: ADME
Cytochrome P450 2C19, sequence (P33261 whole entry): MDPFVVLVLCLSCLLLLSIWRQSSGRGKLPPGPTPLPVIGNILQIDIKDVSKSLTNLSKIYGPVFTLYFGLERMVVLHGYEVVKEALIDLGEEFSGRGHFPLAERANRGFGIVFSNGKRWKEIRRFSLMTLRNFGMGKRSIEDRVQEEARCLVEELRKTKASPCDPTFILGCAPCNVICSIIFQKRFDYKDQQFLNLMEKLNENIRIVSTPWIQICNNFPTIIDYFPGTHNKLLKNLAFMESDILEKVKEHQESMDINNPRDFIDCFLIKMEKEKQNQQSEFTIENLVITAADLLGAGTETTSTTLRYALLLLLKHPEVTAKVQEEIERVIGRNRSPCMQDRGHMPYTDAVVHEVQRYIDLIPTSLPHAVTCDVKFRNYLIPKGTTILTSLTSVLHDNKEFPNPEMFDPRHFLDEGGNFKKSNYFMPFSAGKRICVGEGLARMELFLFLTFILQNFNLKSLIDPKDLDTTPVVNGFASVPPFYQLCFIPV

[5] = Chromatographic hydrophobicity index at pH 7.4 by fast gradient HPLC; format: physicochemical; settings: buffer
[6] = molecular target: T1, Cytochrome P450 3A4 (Homo sapiens, UniProt P08684); experiment: Inhibition of CYP3A4 using 7-benzyloxyquinoline substrate; format: ADME
T1 sequence (P08684 whole entry): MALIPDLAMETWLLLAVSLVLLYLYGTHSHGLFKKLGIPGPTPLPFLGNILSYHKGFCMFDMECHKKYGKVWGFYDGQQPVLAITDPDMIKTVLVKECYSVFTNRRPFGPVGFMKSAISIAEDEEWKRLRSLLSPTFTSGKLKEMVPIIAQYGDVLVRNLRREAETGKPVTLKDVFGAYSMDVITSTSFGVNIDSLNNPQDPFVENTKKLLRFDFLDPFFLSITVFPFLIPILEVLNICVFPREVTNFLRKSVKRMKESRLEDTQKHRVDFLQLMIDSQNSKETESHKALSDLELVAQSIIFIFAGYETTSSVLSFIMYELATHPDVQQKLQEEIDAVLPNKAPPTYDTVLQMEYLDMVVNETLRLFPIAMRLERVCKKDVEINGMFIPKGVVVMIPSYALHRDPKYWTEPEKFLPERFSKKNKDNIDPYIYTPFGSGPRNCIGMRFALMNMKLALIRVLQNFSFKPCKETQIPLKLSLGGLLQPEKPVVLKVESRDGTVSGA

[7] = molecular target: T1, Cytochrome P450 3A4; experiment: Inhibition of CYP3A4 using diethoxyfluorescein substrate; format: ADME
[8] = Dissociation constant, pKa of the compound; format: physicochemical
[9] = molecular target: T2, Cytochrome P450 1A2 (Homo sapiens, UniProt P05177); experiment: Inhibition of CYP1A2; format: ADME
T2 sequence (P05177 whole entry): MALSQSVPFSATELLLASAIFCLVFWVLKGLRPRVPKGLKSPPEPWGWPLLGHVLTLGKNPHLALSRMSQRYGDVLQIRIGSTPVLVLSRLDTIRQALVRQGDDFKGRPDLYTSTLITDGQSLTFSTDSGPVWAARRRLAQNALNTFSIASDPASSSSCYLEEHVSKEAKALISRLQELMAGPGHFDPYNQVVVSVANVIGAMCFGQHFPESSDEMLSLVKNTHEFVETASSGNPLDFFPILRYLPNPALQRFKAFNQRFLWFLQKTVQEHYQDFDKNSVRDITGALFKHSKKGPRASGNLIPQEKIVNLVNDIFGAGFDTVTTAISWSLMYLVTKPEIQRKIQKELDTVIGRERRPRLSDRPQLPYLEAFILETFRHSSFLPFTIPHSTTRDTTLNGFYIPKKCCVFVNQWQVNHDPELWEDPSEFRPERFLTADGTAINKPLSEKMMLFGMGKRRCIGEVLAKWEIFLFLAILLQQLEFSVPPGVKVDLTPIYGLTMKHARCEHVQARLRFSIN

[10] = Intrinsic clearance in dog liver microsomes; format: ADME, Canis lupus familiaris, Microsome
[11] = Intrinsic clearance in rat liver microsomes; format: ADME, Microsome
[12] = Inhibition of H+/K+ ATPase in parietal cells assessed as inhibition of histamine-stimulated [14C]aminopyrine accumulation
[13] = Intrinsic clearance in human liver microsomes; format: ADME, Microsome
[14] = Inhibition of H+/K+ ATPase in parietal cells assessed as inhibition of pentagastrin-stimulated [14C]aminopyrine accumulation at 50 µM
[15] = Inhibition of H+/K+ ATPase in parietal cells assessed as inhibition of pentagastrin-stimulated [14C]aminopyrine accumulation at 50 nM; format: cell-based
[16] = Inhibition of H+/K+ ATPase in parietal cells assessed as inhibition of pentagastrin-stimulated [14C]aminopyrine accumulation at 1 uM; format: cell-based

Cytochrome P450 2D6, sequence (P10635 whole entry): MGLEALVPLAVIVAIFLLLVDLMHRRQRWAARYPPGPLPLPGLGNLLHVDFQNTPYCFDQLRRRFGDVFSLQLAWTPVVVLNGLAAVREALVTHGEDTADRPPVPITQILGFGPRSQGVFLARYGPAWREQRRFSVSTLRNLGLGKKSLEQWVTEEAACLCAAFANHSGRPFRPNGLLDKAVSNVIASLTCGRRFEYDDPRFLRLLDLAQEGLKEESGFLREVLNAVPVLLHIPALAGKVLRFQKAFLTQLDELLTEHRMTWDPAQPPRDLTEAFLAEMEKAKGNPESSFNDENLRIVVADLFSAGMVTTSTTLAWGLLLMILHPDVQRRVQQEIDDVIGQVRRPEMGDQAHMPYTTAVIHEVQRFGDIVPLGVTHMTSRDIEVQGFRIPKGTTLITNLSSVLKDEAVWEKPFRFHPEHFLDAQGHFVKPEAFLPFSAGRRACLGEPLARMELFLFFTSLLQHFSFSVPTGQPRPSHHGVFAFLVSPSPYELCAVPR

| IC50 [1] | pIC50 [2] | IC50 [3] | IC50 [4] | chromatographic logD [5] | IC50 [6] | IC50 [7] | pKa ([8]; read-out: pKa) | IC50 [9] | CLint scaled [10] | CLint scaled [11] | IC50 [12] | CLint scaled [13] | pKa [8] | pIC50 [16] | Structure (SMILES) | inhibition [14] | inhibition [15] |
| --- | --- | --- | --- | --- | --- | --- | --- | --- | --- | --- | --- | --- | --- | --- | --- | --- | --- |
| 2.3 µM | 7.6 | 16 µM | 6.2 µM | 3.38 | 18 µM | 5.5 µM | 7.41 | 0.7 µM |  |  |  |  |  |  | Cc1cccc(C)c1COc1cccn2c(C)c(C)nc12 |  |  |
|  | 4.1 |  |  |  |  |  | 6.03 |  |  |  |  |  |  |  | Cc1cccc(C)c1CNc1cccn2c(C)ncc12 |  |  |
|  |  |  |  | 2.14 |  |  | 6.27 |  | 0.9 mL/min/kg | 4 mL/min/kg | 0.0562 µM | 1.3 mL/min/kg |  |  | Cc1cccc(C)c1CNc1cc(C(=O)NCCO)cn2c(C)c(C)nc12 [LINAPRAZAN] |  |  |
| 45.5 µM | 6.8 | 11.4 µM | 40 µM | 3.12 |  | 5.6 µM | 4.5 | > 100 µM |  | 21.9 mL/min/kg | 0.251 µM | 12.1 mL/min/kg |  |  | Cc1cccc(C)c1CNc1nc(-n2ccccc2=O)cc2c(C)c(C)n(CCO)c12 |  |  |
|  | 6.1 |  |  | 3.53 |  |  |  |  |  |  |  |  |  |  | Cc1cccc(C)c1CNc1ccnn2c(C)c(C)nc12 |  |  |
|  | 7.1 |  |  | 3.4 |  |  |  |  |  |  | 0.282 µM |  |  |  | Cc1cccc(C)c1CNc1nccn2c(C)c(C)nc12 |  |  |
| > 33 µM | 7.4 | 3.3 µM | 20 µM | 3.18 | 90 µM | 3 µM | 4.71 | 29 µM |  | 2.9 mL/min/kg |  | 2.7 mL/min/kg |  |  | Cc1cccc(C)c1CNc1nc(-n2ccccc2=O)cc2c(C)c(C)[nH]c12 |  |  |
| < 0.1 µM | 7.6 | 14 µM | 4.7 µM | 3.54 | 1.6 µM | 4.7 µM | 7.92 | 6.1 µM |  | 50 mL/min/kg | 0.141 µM | 11 mL/min/kg |  |  | Cc1cccc(C)c1CNc1nccn2c(C)c(C)cc12 |  |  |
|  |  |  |  |  |  |  |  |  | 3 mL/min/kg | 14 mL/min/kg | 0.0234 µM | 6.5 mL/min/kg |  |  | CCc1cccc(C)c1CNc1cc(C(N)=O)cn2c(C)c(C)nc12 |  |  |
|  | 6.8 |  |  |  |  |  | 8.63 |  |  |  |  |  |  |  | Cc1cccc(C)c1CNc1nccc2cc[nH]c12 |  |  |
| 35 µM | 5.5 | 8.8 µM | 9.2 µM |  | 9 µM | 13 µM |  | 2.1 µM |  | 47 mL/min/kg | 0.0447 µM | 8 mL/min/kg |  |  | Cc1cccc(C)c1CNc1cccc2c1nc(C)n2C |  |  |
|  | 8.4 |  |  |  |  |  | 8.79 |  |  |  |  |  |  |  | Cc1[nH]c2c(NCc3ccccc3)nccc2c1C |  | 98.5% |
|  | 4 |  |  | 3.5 |  |  |  |  |  |  |  |  |  | inactive | Cc1cccc(C)c1CNc1cccn2c(C)nnc12 |  |  |
|  | 4.8 |  |  | 3.28 |  |  | 7.42 |  |  |  |  |  |  |  | Cc1cccc(C)c1CNc1ccnc2c1cc(C)n2C | 36% |  |
|  | 4.5 |  |  | 2.27 |  |  | 5.81 |  |  |  |  |  |  |  | Cc1cccc(C)c1CNc1ccnc2c1nc(C)n2C |  |  |
| 82 µM | 7.4 |  | > 100 µM | 4.2 | 12 µM | 9 µM | 7.28 | 2 µM |  | 8.5 mL/min/kg | 0.0166 µM | 8 mL/min/kg |  |  | Cc1nc2c(OCc3ccccc3)cccn2c1CC#N |  |  |
| 0.6 µM | 6.3 | 6.7 µM | 0.3 µM | 5.31 | 6.6 µM | 7.7 µM |  | 3.7 µM |  | 3.9 mL/min/kg | 0.316 µM | < 0.5 mL/min/kg | Insoluble |  | Cc1cccc(C)c1CNc1nc(-c2ccccc2)cc2c(C)c(C)[nH]c12 |  |  |

Second part, the compound before the results:

| Structure (SMILES) | IC50 [1] | pIC50 [2] | IC50 [3] | IC50 [4] | chromatographic logD [5] | IC50 [6] | IC50 [7] | pKa ([8]; read-out: pKa) | IC50 [9] | CLint scaled [10] | CLint scaled [11] | IC50 [12] | CLint scaled [13] | pKa [8] | pIC50 [16] | inhibition [14] | inhibition [15] |
| --- | --- | --- | --- | --- | --- | --- | --- | --- | --- | --- | --- | --- | --- | --- | --- | --- | --- |
| Cc1cccc(C)c1CNc1ncnc2c(C)csc12 |  | < 4 |  |  |  |  |  |  |  |  |  |  |  |  |  |  |  |
| Cc1cccc(C)c1CNc1nccc2c1cc(C)n2C | < 0.1 µM | 6.8 | 66 µM | 6.9 µM | 2.04 | 4.3 µM | 3.1 µM | 9.14 | 41 µM | 17 mL/min/kg | 28 mL/min/kg |  | 3.8 mL/min/kg |  |  | 22% |  |
| Cc1cccc(C)c1CNc1nccc2c(C)c(C)[nH]c12 | < 0.1 µM | 9.4 | 33 µM | 1.8 µM | 2.29 | 9.6 µM | 9 µM |  | 14 µM | 19 mL/min/kg | 50 mL/min/kg | 0.0708 µM | 5 mL/min/kg |  |  |  | 67.3% |
| Cc1cccc(C)c1CNc1nc(N2CCOCC2=O)cc2c(C)c(C)[nH]c12 | 25 µM | 5.9 | 61 µM | 66 µM | 2.83 | 22 µM | 22 µM |  | 35 µM |  | 4.3 mL/min/kg | 0.2 µM | 1.6 mL/min/kg | Insoluble |  |  |  |
| Cc1cccc(C)c1CNc1nc(-c2cccc(=O)[nH]2)cc2c(C)c(C)[nH]c12 | 60 µM | 5.1 | 2.3 µM | 62 µM | 4.12 | 2.2 µM | 1.3 µM |  | > 100 µM |  |  | 0.316 µM |  | Insoluble |  |  |  |
| Cc1cccc(C)c1CNc1nc(N2CCOCC2=O)cc2c(C)c(C)n(CCO)c12 | 36 µM | 6.6 | 13 µM | > 100 µM | 2.93 | 11 µM | 6 µM | 5.4 | > 100 µM |  | 6.5 mL/min/kg | 0.0794 µM | 6.9 mL/min/kg |  |  |  |  |
| CCn1c(C)c(C)c2cc(-n3ccccc3=O)nc(NCc3c(C)cccc3C)c21 | 18 µM | 7.4 | 0.7 µM | 6.5 µM | 3.9 |  | 2.9 µM | 4 | 65 µM |  | 41 mL/min/kg | 0.2 µM | 22 mL/min/kg |  |  |  |  |
| Cc1cc2ncnc(NCc3c(C)cccc3C)c2s1 |  | < 4 |  |  |  |  |  |  |  |  |  |  |  |  |  |  |  |
| Cc1cccc(C)c1CNc1nc(N2CCNC2=O)cc2c(C)c(C)[nH]c12 | 0.7 µM | 6.5 | 2.7 µM | 8.2 µM | 2.54 | 1.6 µM | 1.6 µM |  | 22 µM |  | 6 mL/min/kg | 0.158 µM | 1.3 mL/min/kg |  |  |  |  |
| C=CCn1c(C)c(C)c2cc(-n3ccccc3=O)nc(NCc3c(C)cccc3C)c21 | 26 µM | 7.5 | 0.5 µM | 6 µM | 4.06 |  | 2.4 µM | 4 | 62 µM |  | 20 mL/min/kg |  | 13 mL/min/kg |  |  |  |  |
| Cc1cccc(C)c1CNc1nccc2c1nc(C)n2C | < 0.1 µM | 5.3 | 68 µM | 27 µM | 2.09 | 21 µM | 12 µM | 7.49 | 31 µM | 6.5 mL/min/kg | 14 mL/min/kg | 0.0741 µM | 3.4 mL/min/kg |  |  |  |  |
| Cc1cccc(C)c1CNc1nccc2c(C)c[nH]c12 |  | 9 |  |  |  |  |  | 8.71 |  |  |  |  |  |  |  |  | 92.5% |
| Cc1cccc(C)c1CNc1nc(N2CCCC2=O)cc2c(C)c(C)[nH]c12 | 1.9 µM | 7.4 | 1.4 µM | 6.4 µM | 3.77 | 1.8 µM | 1 µM | 6.32 | 26 µM |  |  | 0.158 µM |  |  |  |  |  |
| Cc1cccc(C)c1CNc1ncnc2c(C)c(C)[nH]c12 | 0.3 µM | 5.9 | > 100 µM | > 10 µM | 2.53 | > 100 µM | 8.8 µM |  | > 100 µM |  | 9 mL/min/kg | 0.0631 µM | 2.8 mL/min/kg |  |  |  |  |
